Here are results for one compound from patent US6046231A, “Use of 4'-bromoflavone in a cancer chemopreventative composition and method” (The Board of Trustees of the University of Illinois, priority 1999, dated 2000).

In series [1] the test system is quinone reductase (QR), mutant Hepa 1c1c7 cells (TAOBP^r cl and BP^r cl). Put plainly: QR induction in mutant Hepa 1c1c7 cell lines (mono-/bifunctional inducer). Conditions: wild-type vs mutant cells. Type of series: cell-based, murine. On the procedure:
Determination of Quinone Reductase Activity in Cell Cultures. To determine the potency of inducers, Hepa 1c1c7 murine hepatoma cells as described in the Gerhauser publication were placed in 96-well plates at a density of 1×10^4 cells/ml in 200 μl of medium. After a preincubation period of 24 hr, the media were decanted and 190 μl fresh media were added to each well. Ten (10) μl test agents dissolved in 10% DMSO (final concentration of DMSO is 0.5%) with a serial 2-fold dilutions were introduced to each well, and the plates were incubated for an additional 48 hours. Specific QR activity was determined by measuring the NADPH-dependent menadiol-mediated reduction of 3-(4, 5-dimethylthiazo-2-yl)-2,5-diphenyltetrazolium bromide to blue formazan formed per mg protein per minute. Protein was determined in an identical set of test plates by staining with crystal violet. […] Induction of QR activity was calculated by comparing the QR specific activity of agent-treated cells with that of solvent-treated cells, and a plot of ratio was generated. […]
Induction of Quinone Reductase in Hepa 1c1c7 Cells. […] Induction of QR activity was calculated by comparing the QR specific activity of agent-treated cells with the QR specific activity of solvent-treated cells, and a plot of ratios was generated. […]

The subject of another series is H4IIE rat hepatoma cells. Put plainly: Toxicity in H4IIE rat hepatoma cells. The series is classed as cell-based.
The next series has as its target T1, cytochrome P4501A1 (Rattus norvegicus, UniProt P00185).
T1 sequence (P00185 1-524): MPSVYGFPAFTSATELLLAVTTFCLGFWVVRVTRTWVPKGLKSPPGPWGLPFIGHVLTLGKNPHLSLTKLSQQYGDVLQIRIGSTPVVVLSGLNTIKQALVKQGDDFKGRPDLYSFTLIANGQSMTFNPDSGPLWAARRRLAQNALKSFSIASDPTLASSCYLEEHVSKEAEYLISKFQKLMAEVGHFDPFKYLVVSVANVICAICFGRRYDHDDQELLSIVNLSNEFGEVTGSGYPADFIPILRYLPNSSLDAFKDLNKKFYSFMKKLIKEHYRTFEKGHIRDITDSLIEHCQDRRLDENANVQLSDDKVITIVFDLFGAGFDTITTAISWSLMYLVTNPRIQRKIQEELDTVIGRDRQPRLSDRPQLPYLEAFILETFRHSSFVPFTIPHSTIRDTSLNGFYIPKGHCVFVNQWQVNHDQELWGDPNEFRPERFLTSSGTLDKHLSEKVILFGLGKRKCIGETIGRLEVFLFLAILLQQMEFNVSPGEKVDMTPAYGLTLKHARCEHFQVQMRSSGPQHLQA
Put plainly: biochemical. The protocol: Inhibition of DMBA-induced Cytochrome P4501A1 Activity. Female Sprague Dawley rats (43 days of age) were treated with DMBA (i.g.), and liver microsomes were isolated through differential centrifugation. Cytochrome P4501A1 activity was monitored by assessing EROD activity. Briefly, 200 μl of microsomal protein (2 mg/ml) were added to a reaction mixture containing 640 μl of 0.05 M Tris-HCl buffer (pH 7.5), 100 μl of BSA (10 mg/ml in Tris buffer), 20 μl of 0.25 M MgCl2, 40 μl of cofactor solution (0.3282 g of NADP and 1.417 g of glucose 6-phosphate in 40 ml of 1.15% KCl), 2.5 units of glucose 6-phosphate dehydrogenase, 10 μl of substrate (1 mg of ethoxyresorufin in 10 ml of methanol) and 10 μl of various concentrations of 4'-BF in DMSO (α-naphthoflavone as positive control; DMSO as negative control). After incubating at 37° C. for 4 min, the reactions were terminated by the addition of 2 ml of methanol. Samples were then centrifuged for 20 min at 2,000×g. and 200 μl of the supernatant fractions were transferred to 96-well plates and read on a spectrofluorimeter (500 nm excitation and 585 nm emission). Assays were conducted in triplicate and the percent of inhibition was calculated as: [1-(sample A-blank)/(DMSO A-blank)]×100.

As a reminder, the IC50 is the concentration that inhibits the measured activity by half. Low readings indicate greater potency in that assay, high ones weaker potency in that assay. For `O=c1cc(-c2ccc(Br)cc2)oc2ccccc12` [4'-Bromoflavone], the “inducer type (mono-/bifunctional)” value in series [1] was “bifunctional inducer”. Besides, the “toxicity in H4IIE cells” value with H4IIE rat hepatoma cells is on record as “no observed toxicity”. The compound further came in with a half-maximal inhibitory concentration (IC50) against cytochrome P4501A1 of 860 nM.
